Assay results as given in patent US12005123B2, “Conjugate of isotretinoin and peptide” (CAREGEN CO., LTD., priority 2017, dated 2024).
Where two headings read alike, the source gives them in different places.

Columns and labels:
[1] = cited from earlier work
[2] = Solubility test in distilled water; format: physicochemical; details: 10 mg/ml, FIG. 1
[3] = background statement; cited from earlier work

| solubility in water [2] | Compound | blood concentration of active metabolite versus isotretinoin ([1]; 6 hours after administration) | fasting bioavailability ([1]; fasting) | time to reach the highest blood concentration ([1]; oral administration) | solubility in water [3] |
| --- | --- | --- | --- | --- | --- |
| – | CC1=C(/C=C/C(C)=C/C=C/C(C)=C/C(=O)O)C(C)(C)CCC1=O [4-oxo-isotretinoin] | higher than the blood concentration of isotretinoin | – | – | – |
| hardly dissolved in water | CC1=C(/C=C/C(C)=C/C=C/C(C)=C\C(=O)O)C(C)(C)CCC1 [isotretinoin, 13-cis-retinoic acid] | – | about 20% | 2 to 4 h | low |
